Measured values published in ChEMBL document CHEMBL1136666, “Indanyl piperazines as melatonergic MT2 selective agents” (Bioorg Med Chem Lett, 2003).
pEC50, pIC50: −log10 of the molar value.

What was measured:
[1] = molecular target: Melatonin receptor type 1A (Homo sapiens, UniProt P48039); experiment: In vitro receptor binding at MT1 (Melatonin) receptor.
[2] = molecular target: T1, Melatonin receptor type 1B (Homo sapiens, UniProt P49286); experiment: In vitro receptor binding at MT2 (Melatonin) receptor.
T1 sequence (P49286 whole entry): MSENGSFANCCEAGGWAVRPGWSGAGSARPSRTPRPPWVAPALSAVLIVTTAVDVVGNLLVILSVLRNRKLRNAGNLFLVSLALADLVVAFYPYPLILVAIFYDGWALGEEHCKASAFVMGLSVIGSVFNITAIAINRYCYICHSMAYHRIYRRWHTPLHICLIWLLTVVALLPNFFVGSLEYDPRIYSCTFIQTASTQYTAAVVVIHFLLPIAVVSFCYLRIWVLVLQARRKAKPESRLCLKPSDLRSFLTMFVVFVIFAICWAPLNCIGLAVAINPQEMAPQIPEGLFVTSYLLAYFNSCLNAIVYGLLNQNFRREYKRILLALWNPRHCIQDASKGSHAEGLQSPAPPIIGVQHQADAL

[3] = molecular target: T1, Melatonin receptor type 1B; experiment: Effective concentration against human MT2 (Melatonin) receptor stably expressed in NIH3T3 cells in adenylyl cyclase assay; format: functional, cell-based

Chain of Melatonin receptor type 1A (P48039 whole entry): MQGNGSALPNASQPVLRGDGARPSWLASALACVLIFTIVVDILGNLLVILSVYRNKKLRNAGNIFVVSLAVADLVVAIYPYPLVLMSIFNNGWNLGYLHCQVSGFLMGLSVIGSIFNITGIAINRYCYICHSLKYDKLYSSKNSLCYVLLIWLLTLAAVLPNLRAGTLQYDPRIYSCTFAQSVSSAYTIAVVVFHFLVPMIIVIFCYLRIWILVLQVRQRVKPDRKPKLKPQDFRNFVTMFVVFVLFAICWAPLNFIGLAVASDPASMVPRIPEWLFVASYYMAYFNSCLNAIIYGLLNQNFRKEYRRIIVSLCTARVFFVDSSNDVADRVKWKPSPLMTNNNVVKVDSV

SMILES | pIC50 [1] | pIC50 [2] | pEC50 [3]
CCNC(=O)N1CCN(C2CCCc3ccc(OC)cc32)CC1 (stereo unspecified) | < 6.00 | 7.03 | 
COc1ccc2c(c1)[C@H](N1CCN(C(=O)C(C)C)CC1)CC2 | 6.94 | 8.82 | 
CCNC(=O)N1CCN([C@@H]2CCc3ccc(OC)cc32)CC1 | 6.70 | 8.77 | 8.62
CCNC(=O)N1CCN(C2CCc3ccc(OC)cc32)CC1 (stereo unspecified) | < 6.00 | 8.51 | 
COc1ccc2c(c1)[C@H](N1CCN(C(=O)C3CC3)CC1)CC2 | 7.35 | 8.80 | 
COc1ccc2c(c1)C(N1CCN(C(=O)C3CC3)CC1)CCC2 (stereo unspecified) | < 6.00 | 7.12 | 
COc1ccc(F)c(CN2CCN(C(=O)C(C)C)CC2)c1 | < 6.00 | 6.65 | 
COc1ccc2c(c1)C(N1CCN(C(=O)C3CC3)CC1)CC2 (stereo unspecified) | 6.81 | 8.52 | 
COc1ccc2c(c1)C(N1CCN(C(=O)C(C)C)CC1)CC2 (stereo unspecified) | 6.80 | 8.82 | 
CCNC(=O)N1CCN(c2cccc3ccc(OC)cc23)CC1 | < 6.00 | < 6.00 | 
CCC(=O)N1CCN(C2CCc3ccc(OC)cc32)CC1 (stereo unspecified) | < 6.00 | 7.49 | 
COc1ccc2c(c1)C(N1CCN(C(C)=O)CC1)CC2 (stereo unspecified) | < 6.00 | 7.36 | 
COc1ccc(F)c(CN2CCN(C(=O)C3CC3)CC2)c1 | < 6.00 | 6.57 | 
COc1ccc2c(c1)[C@@H](N1CCN(C(=O)C(C)C)CC1)CC2 | < 6.00 | < 6.00 | 
CCCCC(=O)N1CCN(C2CCc3ccc(OC)cc32)CC1 (stereo unspecified) | < 6.00 | 6.99 | 
COc1ccc(F)c(CN2CCN(C(C)=O)CC2)c1 | < 6.00 | < 6.00 | 
COc1ccc2c(c1)[C@@H](N1CCN(C(=O)C3CC3)CC1)CC2 | < 6.00 | < 6.00 | 
COc1ccc2cccc(N3CCN(C(=O)C4CC4)CC3)c2c1 | < 6.00 | 7.05 | 
CCCC(=O)N1CCN(C2CCc3ccc(OC)cc32)CC1 (stereo unspecified) | < 6.00 | 8.64 | 
CCNC(=O)N1CCN([C@H]2CCc3ccc(OC)cc32)CC1 | < 6.00 | < 6.00 | 
